According to PubChem BioAssay AID624491 (Broad Institute, 2012):

Tested on: D54 ERlucT glycosylation luciferase reporter, luminescence, 24 h
Assay: N-linked glycosylation inhibitors, luciferase reporter, dose response, D54 ERlucT cells, luminescence, cherry-picks (AID 624491);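 also: signal gain reflects blocked N-linked glycosylation of a luciferase reporter; actives raise luciferase signal so AC26 marks activators of the reporter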

SMILES | AC26
CCOC(=O)c1c(C)c(C(=O)Nc2cc(F)ccc2F)c(C)n1C | 12600 nM
CN(C)/N=C/C=C1\CCC/C(=C\c2ccc(F)c(F)c2)C1=O | 966 nM
COc1ccc2c(c1)OC[C@H]1[C@H]2N2C(=O)c3cc(Cl)ccc3NC(=O)[C@@]2(C)[C@H]1c1ccccc1 | 1250 nM
Cc1ccc(C)n1-c1cccc(NC(=O)c2ccccc2)c1 | 8830 nM
CCOc1ccc(/C=N/NC(=O)c2cc3c(OC)cccc3[nH]2)cc1 | 3800 nM
Cn1cccc1/C=C1\SC(=Nc2ccccc2)NC1=O | 1150 nM
COc1ccc(OC)c(-c2nnc3n2N=C(c2ccc(OC)c(OC)c2)CS3)c1 | 4160 nM
O=C1[C@H]2[C@@H](c3ccc(F)cc3)N3C(=O)N(c4cccc(Br)c4)C(=O)[C@@]3(Cc3ccccc3)[C@H]2C(=O)N1C1CCCCC1 | 114 nM
CCOc1ccc(Nc2nc(N(C)c3ccccc3)nc(N)c2[N+](=O)[O-])cc1 | 92.1 nM
CCN(CC)CCNC(=O)c1cc2c(=O)n(C)c3ccccc3c2s1 | 3940 nM
Cc1ccc(S(=O)(=O)N2CCN(C(=O)COC(=O)c3cc([N+](=O)[O-])ccc3NCCO)CC2)c(C)c1 | 2430 nM
Cc1cc(C)nc(/N=C(\N)Nc2ccc(CC(=O)OC(C)C)cc2)n1 | 5890 nM
Cc1ccc(S(=O)(=O)Nc2ccc3c(c2)n(C)c(=O)n3C)cc1 | 1460 nM
Nc1nonc1C(=O)N/N=C/c1ccc([N+](=O)[O-])o1 | 6160 nM
CCOC(=O)c1[nH]c(C)c(C(=O)Nc2ccc(C)cc2C)c1C | 494 nM
CCOCCCNC(=O)c1cc2c(=O)n(CC)c3ccccc3c2s1 | 8290 nM
Cc1cc(C)cc(-n2c3ccc(NC(=O)Cc4cccc5ccccc45)cc3c(=O)n2C)c1 | 1780 nM
O=C(N/N=C\C=C\c1ccc([N+](=O)[O-])o1)c1cccs1 | 7850 nM
CCOC(=O)c1cc2sccc2n1CC(=O)N1CCc2ccccc21 | 7500 nM
COCCN(C(=O)CCl)C(C(=O)NC1CCCCC1)c1ccccc1C (centres undefined) | 3340 nM
CCn1c2ccccc2c2cc(NC(=O)COC(=O)Cc3cn4ccsc4n3)ccc21 | 1790 nM
COc1ccc2oc(-c3ccccc3[N+](=O)[O-])cc(=O)c2c1 | 568 nM
COc1cc(-c2noc(C)c2/C=C/c2ccc(OC(C)=O)cc2)cc(OC)c1OC | 494 nM
COc1cc(C)cc(C(=O)C=Cc2ccccc2)c1O | 4920 nM
O=C(CN1CCC(O)(c2cccc(F)c2)CC1)NCCc1c[nH]c2ccccc12 | 1150 nM
COC(=O)C1=C(c2cc3ccccc3o2)C[C@@H]2CC[C@H]1N2C(=O)N1CCCCC1 | 14200 nM
Cc1cc(NCCCn2ccnc2)n2nc(C)c(-c3ccccc3)c2n1 | 1170 nM

SMILES | AC26
CCCCCCC(=O)N(O)C1CC(=O)N(c2ccc(Br)cc2)C1=O (centres undefined) | 689 nM
NS(=O)(=O)c1ccc(NC(=O)c2cccc3cc4ccccc4nc23)cc1 | 1320 nM
COc1ccc(N/C=C/C(=O)c2cc(OC)c(OC)c(OC)c2)cc1 | 28.7 nM
OCC1OC(n2ccc3c(SCc4ccccc4)ncnc32)C(O)C1O (centres undefined) | 332 nM
CCCNc1nc2ccccc2n2c(C)nnc12 | 2980 nM
COC(=O)c1c(NC(=O)c2cccnc2Cl)sc(C(=O)N(C)C)c1C | 2090 nM
NC(=O)c1cccc(-c2ccnc3c2CC(C(=O)NCc2ccccc2)O3)c1 (centres undefined) | 2000 nM
Cn1cc(/C=N/n2cnc3scc(-c4ccc(Cl)cc4)c3c2=O)c2ccccc21 | 58.4 nM
CC(=O)Nc1sc(NC(=O)c2ccccc2)nc1-c1cccs1 | 3450 nM
CC1CN(c2nc(-c3ccccc3)nnc2-c2ccccc2)CC(C)O1 (centres undefined) | 368 nM
CCc1ccc(Nc2n[n+](-c3ccccc3)c(-c3ccc(N(CC)CC)cc3)s2)cc1 | 7030 nM
c1ccc(CN2CCC(Nc3nc(-c4cccnc4)nc4ccccc34)CC2)cc1 | 6130 nM
Nc1cc2c3c(cccc3c1)C(=O)N(CCN1CCCC1)C2=O | 275 nM
O=[N+]([O-])c1ccc(Sc2cc[n+]([O-])c3ccccc23)c([N+](=O)[O-])c1 | 5960 nM
CCCCN(CC)CCCNC(=O)c1cc2c(=O)n(C)c3ccccc3c2n1C | 3310 nM
CC[C@H](C)[C@@H](NC(=O)O[C@@H]1C(=O)c2cc(OC)ccc2O[C@H]1c1ccc(OC)c(Br)c1)C(=O)OC | 335 nM
CC(/C=N/NC(=O)c1cc(-c2ccc(C)s2)[nH]n1)=C\c1ccccc1 | 650 nM
O=C(N/N=C/c1c[nH]c2ccccc12)C1COc2ccccc2O1 (centres undefined) | 1310 nM
COc1ccc(OC)c(NS(=O)(=O)c2ccc(SC)cc2)c1 | 7410 nM
COc1ccc(C(=O)/C=C/c2ccc(OC)c(O)c2)c(F)c1 | 4860 nM
O=C(COc1ccccc1)Nc1cccc(-c2cn3cccnc3n2)c1 | 5880 nM
CCN1C(=O)CCN(C2CCCC2)c2nc(Nc3ccc(C(=O)NC4CCN(C)CC4)cc3OC)ncc21 | 479 nM
Cn1c(=O)c2cc(NC(=O)CCc3ccccc3)ccc2n1-c1ccccc1F | 1780 nM
CCn1c(SCC(=O)N/N=C/c2ccc(C)s2)nc2ccccc21 | 2200 nM
Cc1ccc(S(=O)(=O)[N-]c2nc3ccccc3nc2-n2cc[n+](Cc3ccccc3)c2)cc1 | 118 nM
Cc1ccc(Sc2c(CO)c(-c3ccccc3)nn2C)cc1 | 341 nM
COc1ccccc1C(=O)Nc1nnc(CCc2ccccc2)s1 | 3720 nM
